# Measurements taken from patent publication US20240131178A1, “ANTIBODY-DRUG CONJUGATE INCLUDING ANTIBODY AGAINST HUMAN CLDN18.2, AND USE THEREOF” (LEGOCHEM BIOSCIENCES, INC., priority 2021, published 2024).
# Square brackets hold non-standard residues; d marks the D form. Peptide text beside a SMILES is read from it. * marks the point of attachment. Dolaproine = CO[C@@H]([C@@H]1CCCN1)[C@@H](C)C(=O)O; Dil = CC[C@H](C)[C@H](NC)[C@@H](CC(=O)O)OC; X1 = C[C@@H](N*)[C@@H](O)c1ccccc1; NMeV = CN[C@H](C(=O)O)C(C)C
# Tests used:
# Type in all cases: cell-based
# Settings in all cases: 144 hours, SRB dye
# [1] = tested on: gastric cancer cell line NUGC-4; test: In vitro cytotoxicity (cell proliferation inhibition), NUGC-4
# Protocol: (§1) The cell proliferation inhibitory activity of drugs shown in Table 4 and the ADCs was measured. Gastric cancer cell lines NUGC-4, SNU-601, and SNU-602, and a pancreatic cancer cell line PATU-8988s, which are commercially available as cancer cell lines, were used, and normal cell lines HaCaT, Fa2N-4, HK-2, and HS738.st/Int were used. As for test groups treated with each cancer cell line for 144 hours, cells were seeded into a 96-well plate at the rate of 2,500 cells/well to 10,000 cells/well and cultured for 24 hours, and then each cancer cell line was treated with each drug and each ADC at a concentration of 0.256 pM to 100 nM (5-fold serial diltuion), and each normal cell line was treated with each drug and each ADC at a concentration of 2.56 pM to 1,000 nM (5-fold serial dilution). The number of cells survived after 144 hours was quantified using a sulforhodamine B (SRB) dye, and the cell line Hs738.st/Int was quantified using Cell titer glo.
# [2] = tested on: normal cell line Fa2N-4; test: In vitro cytotoxicity, normal cell line Fa2N-4
# Protocol: as §1
# [3] = tested on: pancreatic cancer cell line PATU-8988s; test: In vitro cytotoxicity (cell proliferation inhibition), PATU-8988s
# Protocol: as §1
# [4] = tested on: normal cell line HK-2; test: In vitro cytotoxicity, normal cell line HK-2
# Protocol: as §1
# [5] = tested on: normal cell line HaCaT; test: In vitro cytotoxicity, normal cell line HaCaT
# Protocol: as §1
# [6] = tested on: gastric cancer cell line SNU-620; test: In vitro cytotoxicity (cell proliferation inhibition), SNU-620
# [7] = tested on: gastric cancer cell line SNU-601; test: In vitro cytotoxicity (cell proliferation inhibition), SNU-601
# Protocol: as §1
Structure (SMILES),IC50 [1] [pM],IC50 [2] [pM],IC50 [3] [pM],IC50 [4] [pM],IC50 [5] [pM],IC50 [6] [pM],IC50 [7] [pM]
"CC[C@H](C)[C@@H]([C@@H](CC(=O)N1CCC[C@H]1[C@H](OC)[C@@H](C)C(=O)N[C@H](C)[C@@H](O)c1ccccc1)OC)N(C)C(=O)[C@@H](NC(=O)[C@@H](NC)C(C)C)C(C)C [MMAE, monomethyl auristatin E] (H-[NMeV]V[Dil][Dolaproine]-X1)",290,3000,145,21900,140,710,510
C=C1C[C@H]2C=Nc3cc(OCCCCCOc4cc5c(cc4OC)C(=O)N4CC(=C)C[C@H]4C=N5)c(OC)cc3C(=O)N2C1 [SG2057],30,,,,,97,3
